From ChEMBL document CHEMBL1201861, “Genomics of Drug Sensitity in Cancer screening data, Wellcome Trust Sanger Institute”

Experiments:
Assay in all cases: cells
D-247MG = type: functional, cell-based, Homo sapiens; conditions: Homo sapiens, D-247MG
Description: SANGER: Inhibition of human D-247MG cell growth in a cell viability assay.

G-402 = type: functional, cell-based, Homo sapiens; conditions: Homo sapiens, G-402
Description: SANGER: Inhibition of human G-402 cell growth in a cell viability assay.

MHH-NB-11 = type: functional, cell-based, Homo sapiens; conditions: Homo sapiens, MHH-NB-11;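 note: growth inhibition of human MHH-NB-11 cells, read out by a cell viability assay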
Description: SANGER: Inhibition of human MHH-NB-11 cell growth in a cell viability assay.

CHL-1 = type: functional, cell-based, Homo sapiens; conditions: Homo sapiens, CHL-1;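 note: cell growth inhibition, read out with a cell viability assay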
Description: SANGER: Inhibition of human CHL-1 cell growth in a cell viability assay.

EOL1 = type: functional, cell-based; conditions: Homo sapiens;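 note: growth inhibition of EoL-1 cells, read out by a cell viability assay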
Description: SANGER: Inhibition of human EoL-1-cell cell growth in a cell viability assay.

MKN-1 = type: functional, cell-based, Homo sapiens; conditions: Homo sapiens, MKN-1;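 note: growth inhibition of human MKN1 cells, read out by a cell viability measurement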
Description: SANGER: Inhibition of human MKN1 cell growth in a cell viability assay.

GOTO = type: functional, cell-based, Homo sapiens; conditions: Homo sapiens, GOTO;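 note: growth inhibition of GOTO cells, read out by a cell viability assay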
Description: SANGER: Inhibition of human GOTO cell growth in a cell viability assay.

HH = type: functional, cell-based; conditions: Homo sapiens
Description: SANGER: Inhibition of human HH cell growth in a cell viability assay.

KLE = type: functional, cell-based, Homo sapiens; conditions: Homo sapiens, KLE;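 note: growth inhibition of human KLE cells, read out with a cell viability assay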
Description: SANGER: Inhibition of human KLE cell growth in a cell viability assay.

MZ2-MEL = type: functional, cell-based, Homo sapiens; conditions: Homo sapiens, MZ2-MEL;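 note: growth inhibition of MZ2-MEL cells read out with a cell viability assay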
Description: SANGER: Inhibition of human MZ2-MEL cell growth in a cell viability assay.

SK-MES-1 = type: functional, cell-based, Homo sapiens; conditions: Homo sapiens, SK-MES-1;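 note: growth inhibition of human SK-MES-1 cells, read out with a cell viability assay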
Description: SANGER: Inhibition of human SK-MES-1 cell growth in a cell viability assay.

NCI-H358 = type: functional, cell-based, Homo sapiens; conditions: Homo sapiens, NCI-H358;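 note: growth inhibition of NCI-H358 human cells, read out with a cell viability assay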
Description: SANGER: Inhibition of human NCI-H358 cell growth in a cell viability assay.

NCI-H292 = type: functional, cell-based, Homo sapiens; conditions: Homo sapiens, NCI-H292;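 note: growth inhibition of NCI-H292 cells, read out with a cell viability assay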
Description: SANGER: Inhibition of human NCI-H292 cell growth in a cell viability assay.

BFTC-905 = type: functional, cell-based, Homo sapiens; conditions: Homo sapiens, BFTC-905
Description: SANGER: Inhibition of human BFTC-905 cell growth in a cell viability assay.

Calu-3 = type: functional, cell-based, Homo sapiens; conditions: Homo sapiens, Calu-3;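 note: growth inhibition of human Calu-3 cells, determined with a cell viability assay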
Description: SANGER: Inhibition of human Calu-3 cell growth in a cell viability assay.

TE-1 = type: functional, cell-based, Homo sapiens; conditions: Homo sapiens, TE-1
Description: SANGER: Inhibition of human TE-1 cell growth in a cell viability assay.

A-375 = type: functional, cell-based, Homo sapiens; conditions: Homo sapiens, A-375;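 note: growth inhibition of A375 cells, read out with a cell viability assay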
Description: SANGER: Inhibition of human A375 cell growth in a cell viability assay.

MPP-89 = type: functional, cell-based, Homo sapiens; conditions: Homo sapiens, MPP-89;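 note: growth inhibition of human MPP-89 cells, read out with a cell viability assay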
Description: SANGER: Inhibition of human MPP-89 cell growth in a cell viability assay.

Calu-6 = type: functional, cell-based, Homo sapiens; conditions: Homo sapiens, Calu-6;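 note: growth of human Calu-6 cells, read out by a cell viability assay, IC50 marking inhibition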
Description: SANGER: Inhibition of human Calu-6 cell growth in a cell viability assay.

SK-MEL-2 = type: functional, cell-based, Homo sapiens; conditions: Homo sapiens, SK-MEL-2;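 note: growth inhibition of human SK-MEL-2 cells measured with a cell viability assay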
Description: SANGER: Inhibition of human SK-MEL-2 cell growth in a cell viability assay.

HuP-T3 = type: functional, cell-based, Homo sapiens; conditions: Homo sapiens, HuP-T3;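 note: HuP-T3 cell growth inhibition, read out with a cell viability assay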
Description: SANGER: Inhibition of human HuP-T3 cell growth in a cell viability assay.

T-24 = type: functional, cell-based, Homo sapiens; conditions: Homo sapiens, T-24;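 note: growth inhibition of T-24 cells, read out with a cell viability assay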
Description: SANGER: Inhibition of human T-24 cell growth in a cell viability assay.

TE-8 = type: functional, cell-based, Homo sapiens; conditions: Homo sapiens, TE-8;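 note: growth inhibition of TE-8 cells, measured with a cell viability readout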
Description: SANGER: Inhibition of human TE-8 cell growth in a cell viability assay.

SH-4 = type: functional, cell-based, Homo sapiens; conditions: Homo sapiens, SH-4;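 note: growth inhibition of SH-4 cells, read out with a cell viability assay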
Description: SANGER: Inhibition of human SH-4 cell growth in a cell viability assay.

LOX IMVI = type: functional, cell-based; conditions: Homo sapiens
Description: SANGER: Inhibition of human LOXIMVI cell growth in a cell viability assay.

CAL-12T = type: functional, cell-based, Homo sapiens; conditions: Homo sapiens, CAL-12T;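 note: growth inhibition of human CAL-12T cells, read out with a cell viability assay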
Description: SANGER: Inhibition of human CAL-12T cell growth in a cell viability assay.

EGI-1 = type: functional, cell-based, Homo sapiens; conditions: Homo sapiens, EGI-1;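 note: cell viability readout used to gauge growth inhibition of EGI-1 cells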
Description: SANGER: Inhibition of human EGI-1 cell growth in a cell viability assay.

SW 962 = type: functional, cell-based, Homo sapiens; conditions: Homo sapiens, SW 962;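 note: growth inhibition of human SW962 cells, read out by a cell viability assay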
Description: SANGER: Inhibition of human SW962 cell growth in a cell viability assay.

BB65-RCC = type: functional, cell-based, Homo sapiens; conditions: Homo sapiens, BB65-RCC;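 note: growth inhibition of the cell line, measured with a cell viability assay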
Description: SANGER: Inhibition of human BB65-RCC cell growth in a cell viability assay.

A704 = type: functional, cell-based, Homo sapiens; conditions: Homo sapiens, A704;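 note: growth inhibition of human A704 cells, read out with a cell viability assay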
Description: SANGER: Inhibition of human A704 cell growth in a cell viability assay.

no-10 = type: functional, cell-based, Homo sapiens; conditions: Homo sapiens;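 note: growth inhibition of no-10 cells, read out with a cell viability assay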
Description: SANGER: Inhibition of human no-10 cell growth in a cell viability assay.

MFH-ino = type: functional, cell-based; conditions: Homo sapiens;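 note: growth inhibition of human MFH-ino cells, read out by a cell viability assay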
Description: SANGER: Inhibition of human MFH-ino cell growth in a cell viability assay.

NCI-H1693 = type: functional, cell-based, Homo sapiens; conditions: Homo sapiens, NCI-H1693;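 note: growth inhibition of the human cell line, read out with a cell viability assay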
Description: SANGER: Inhibition of human NCI-H1693 cell growth in a cell viability assay.

LS-1034 = type: functional, cell-based, Homo sapiens; conditions: Homo sapiens, LS-1034
Description: SANGER: Inhibition of human LS-1034 cell growth in a cell viability assay.

COLO-829 = type: functional, cell-based, Homo sapiens; conditions: Homo sapiens, COLO-829
Description: SANGER: Inhibition of human COLO-829 cell growth in a cell viability assay.

HT-29 = type: functional, cell-based, Homo sapiens; conditions: Homo sapiens, HT-29;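 note: growth inhibition of human HT-29 cells, read out by a cell viability assay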
Description: SANGER: Inhibition of human HT-29 cell growth in a cell viability assay.

786-0 = type: functional, cell-based, Homo sapiens; conditions: Homo sapiens
Description: SANGER: Inhibition of human 786-0 cell growth in a cell viability assay.

KP-N-YS = type: functional, cell-based; conditions: Homo sapiens;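 note: cell viability assay measuring inhibition of cell line growth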
Description: SANGER: Inhibition of human KP-N-YS cell growth in a cell viability assay.

UMUC3 = type: functional, cell-based, Homo sapiens; conditions: Homo sapiens, UMUC3;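 note: growth inhibition of human UM-UC-3 cells, read out with a cell viability assay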
Description: SANGER: Inhibition of human UM-UC-3 cell growth in a cell viability assay.

AGS = type: functional, cell-based, Homo sapiens; conditions: Homo sapiens, AGS;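 note: growth inhibition of AGS cells, determined with a cell viability assay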
Description: SANGER: Inhibition of human AGS cell growth in a cell viability assay.

TE-11 = type: functional, cell-based, Homo sapiens; conditions: Homo sapiens, TE-11;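 note: growth inhibition of human TE-11 cells, read out by a cell viability assay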
Description: SANGER: Inhibition of human TE-11 cell growth in a cell viability assay.

LAMA-84 = type: functional, cell-based; conditions: Homo sapiens;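 note: growth inhibition of LAMA-84 cells, read out with a cell viability assay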
Description: SANGER: Inhibition of human LAMA-84 cell growth in a cell viability assay.

CAL-27 = type: functional, cell-based, Homo sapiens; conditions: Homo sapiens, CAL-27;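 note: Viability-based readout, IC50 reflecting inhibition of CAL-27 cell growth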
Description: SANGER: Inhibition of human CAL-27 cell growth in a cell viability assay.

D283 Med = type: functional, cell-based, Homo sapiens; conditions: Homo sapiens, D283 Med
Description: SANGER: Inhibition of human D-283MED cell growth in a cell viability assay.

NCI-H1993 = type: functional, cell-based, Homo sapiens; conditions: Homo sapiens, NCI-H1993;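 note: growth inhibition of the cancer cell line, assessed with a cell viability assay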
Description: SANGER: Inhibition of human NCI-H1993 cell growth in a cell viability assay.

T98G = type: functional, cell-based, Homo sapiens; conditions: Homo sapiens, T98G;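 note: growth inhibition of T98G cells, read out by a cell viability assay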
Description: SANGER: Inhibition of human T98G cell growth in a cell viability assay.

697 = type: functional, cell-based; conditions: Homo sapiens
Description: SANGER: Inhibition of human 697 cell growth in a cell viability assay.

NCI-H2405 = type: functional, cell-based, Homo sapiens; conditions: Homo sapiens, NCI-H2405;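 note: growth inhibition of the human cell line, read out with a cell viability assay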
Description: SANGER: Inhibition of human NCI-H2405 cell growth in a cell viability assay.

ASPC1 = type: functional, cell-based, Homo sapiens; conditions: Homo sapiens, ASPC1;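 note: growth inhibition of AsPC-1 cells, read out with a cell viability assay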
Description: SANGER: Inhibition of human AsPC-1 cell growth in a cell viability assay.

SW1783 = type: functional, cell-based; conditions: Homo sapiens;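 note: cell growth inhibition measured with a viability assay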
Description: SANGER: Inhibition of human SW1783 cell growth in a cell viability assay.

HCC2218 = type: functional, cell-based; conditions: Homo sapiens;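 note: cell viability assay read-out, with IC50 given as the concentration that inhibits growth of the cell line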
Description: SANGER: Inhibition of human HCC2218 cell growth in a cell viability assay.

BEN = type: functional, cell-based, Homo sapiens; conditions: Homo sapiens, BEN;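 note: growth inhibition of the BEN cell line, read out with a cell viability assay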
Description: SANGER: Inhibition of human BEN cell growth in a cell viability assay.

COc1cc([C@@H]2c3cc4c(cc3[C@@H](O[C@@H]3O[C@@H]5CO[C@@H](C)O[C@H]5[C@H](O)[C@H]3O)[C@H]3COC(=O)[C@H]23)OCO4)cc(OC)c1O [ETOPOSIDE]
IC50 (D-247MG): > 16000 nM | IC50 (G-402): 898 nM | IC50 (MHH-NB-11): 524 nM | IC50 (CHL-1): 883 nM | IC50 (EOL1): 302 nM | IC50 (MKN-1): 382 nM | IC50 (GOTO): 6380 nM | IC50 (HH): 4440 nM | IC50 (KLE): 10300 nM | IC50 (MZ2-MEL): 2180 nM | IC50 (SK-MES-1): 808 nM | IC50 (NCI-H358): 3150 nM | IC50 (NCI-H292): 4710 nM | IC50 (BFTC-905): 426 nM | IC50 (Calu-3): 496 nM | IC50 (TE-1): > 16000 nM | IC50 (A-375): 631 nM | IC50 (MPP-89): > 16000 nM | IC50 (Calu-6): 4060 nM | IC50 (SK-MEL-2): > 16000 nM | IC50 (HuP-T3): > 16000 nM | IC50 (T-24): > 16000 nM | IC50 (TE-8): 8750 nM | IC50 (SH-4): 3130 nM | IC50 (LOX IMVI): > 16000 nM | IC50 (CAL-12T): 11100 nM | IC50 (EGI-1): 3270 nM | IC50 (SW 962): > 16000 nM | IC50 (BB65-RCC): 979 nM | IC50 (A704): > 16000 nM | IC50 (no-10): 3490 nM | IC50 (MFH-ino): 751 nM | IC50 (NCI-H1693): > 16000 nM | IC50 (LS-1034): > 16000 nM | IC50 (COLO-829): 1770 nM | IC50 (HT-29): 1980 nM | IC50 (786-0): 492 nM | IC50 (KP-N-YS): 4240 nM | IC50 (UMUC3): 1150 nM | IC50 (AGS): 318 nM | IC50 (TE-11): 7460 nM | IC50 (LAMA-84): 9210 nM | IC50 (CAL-27): 10400 nM | IC50 (D283 Med): 2200 nM | IC50 (NCI-H1993): > 16000 nM | IC50 (T98G): 8820 nM | IC50 697: 243 nM | IC50 (NCI-H2405): 2440 nM | IC50 (ASPC1): > 16000 nM | IC50 (SW1783): 3060 nM | IC50 (HCC2218): > 16000 nM | IC50 (BEN): > 16000 nM

Cc1cnc(-c2cnc(NCCNc3ccc(C#N)cn3)nc2-c2ccc(Cl)cc2Cl)[nH]1 [LADUVIGLUSIB]
IC50 (D-247MG): 949 nM | IC50 (G-402): > 2560 nM | IC50 (MHH-NB-11): > 2560 nM | IC50 (CHL-1): > 2560 nM | IC50 (EOL1): > 2560 nM | IC50 (MKN-1): > 2560 nM | IC50 (GOTO): > 2560 nM | IC50 (HH): > 2560 nM | IC50 (KLE): > 2560 nM | IC50 (MZ2-MEL): > 2560 nM | IC50 (SK-MES-1): > 2560 nM | IC50 (NCI-H358): > 2560 nM | IC50 (NCI-H292): > 2560 nM | IC50 (BFTC-905): > 2560 nM | IC50 (Calu-3): > 2560 nM | IC50 (TE-1): > 2560 nM | IC50 (A-375): > 2560 nM | IC50 (MPP-89): > 2560 nM | IC50 (Calu-6): > 2560 nM | IC50 (SK-MEL-2): > 2560 nM | IC50 (HuP-T3): > 2560 nM | IC50 (T-24): > 2560 nM | IC50 (TE-8): > 2560 nM | IC50 (SH-4): > 2560 nM | IC50 (LOX IMVI): 588 nM | IC50 (CAL-12T): > 2560 nM | IC50 (EGI-1): > 2560 nM | IC50 (SW 962): > 2560 nM | IC50 (BB65-RCC): > 2560 nM | IC50 (A704): > 2560 nM | IC50 (no-10): > 2560 nM | IC50 (MFH-ino): > 2560 nM | IC50 (NCI-H1693): > 2560 nM | IC50 (LS-1034): > 2560 nM | IC50 (COLO-829): > 2560 nM | IC50 (HT-29): > 2560 nM | IC50 (786-0): > 2560 nM | IC50 (KP-N-YS): > 2560 nM | IC50 (UMUC3): > 2560 nM | IC50 (AGS): > 2560 nM | IC50 (TE-11): > 2560 nM | IC50 (LAMA-84): > 2560 nM | IC50 (CAL-27): > 2560 nM | IC50 (D283 Med): > 2560 nM | IC50 (NCI-H1993): > 2560 nM | IC50 (T98G): > 2560 nM | IC50 697: > 2560 nM | IC50 (NCI-H2405): > 2560 nM | IC50 (ASPC1): > 2560 nM | IC50 (SW1783): > 2560 nM | IC50 (HCC2218): > 2560 nM | IC50 (BEN): > 2560 nM
